# Test results taken from patent US20120214862A1, “MODULATION OF FACTOR 7 EXPRESSION” (ISIS Pharmaceuticals, Inc., priority 2009, published 2012).
# In the oligonucleotide strings, read from the 5' end, every base follows the letter of its sugar. An asterisk marks phosphorothioate; unmarked linkages are phosphodiester. Other units and linkages are bracketed, terminal groups are in braces. A string of capitals states the bases alone. e = 2'-O-(2-methoxyethyl) (MOE); [5mC] = 5-methylcytosine; d = 2'-deoxy (DNA)
# Tested on: human Factor 7 mRNA
# Experiment: Inhibition of human Factor 7 mRNA by 2-10-2 MOE shortmers in HepB3 cells, electroporation, 1,000 nM
# Assay type: cell-based
# Details: electroporation, 1,000 nM oligonucleotide, approximately 24 hours, relative to untreated control cells
# Text: Short antisense oligonucleotides (shortmers) were designed to target a Factor 7 nucleic acid. The shortmers in Table 17 were designed as 2-10-2 MOE gapmers. The gapmers are 14 nucleotides in length, wherein the central gap segment is comprised of 10 2′-deoxynucleotides and is flanked on both sides (in the 5′ and 3′ directions) by wings comprising 2 nucleotides each. Each nucleotide in the 5′ wing segment and each nucleotide in the 3′ wing segment has a 2′-MOE modification. The internucleoside linkages throughout each gapmer are phosphorothioate (P═S) linkages. All cytidine residues throughout each gapmer are 5-methylcytidines.
# Shortmers were evaluated for their ability to reduce human Factor 7 mRNA in HepB3 cells and compared with one 5-10-5 chimeric oligonucleotide from Table 16, ISIS 407939. HepB3 cells at a density of 20,000 cells per well in a 96-well plate were transfected using electroporation with 1,000 nM of antisense oligonucleotide. After a treatment period of approximately 24 hours, RNA was isolated from the cells and Factor 7 mRNA levels were measured by real-time RT-PCR, as described herein. Factor 7 mRNA levels were adjusted according to total RNA content as measured by RIBOGREEN®. Results are presented in Table 17 as percent inhibition of Factor 7 mRNA, relative to untreated control cells. ISIS 407939 is the first oligonucleotide in […] to which the shortmers were compared, and is marked by an asterisk (*).
row,Substance,% inhibition of human Factor 7 mRNA [%]
1,435658 (antisense eT*e[5mC]*dA*d[5mC]*dT*dG*d[5mC]*dA*dG*dT*dA*d[5mC]*eT*eG) [compound 435658],60
2,435659 (antisense eT*eA*d[5mC]*d[5mC]*d[5mC]*d[5mC]*dT*d[5mC]*dG*dT*dG*dG*e[5mC]*eA) [compound 435659],18
3,435660 (antisense e[5mC]*e[5mC]*dG*dT*d[5mC]*dT*dG*d[5mC]*d[5mC]*dA*dG*d[5mC]*eA*eG) [compound 435660],58
4,435661 (antisense eG*eG*dA*d[5mC]*dA*d[5mC]*d[5mC]*d[5mC]*d[5mC]*dG*dT*d[5mC]*eT*eG) [compound 435661],18
5,435662 (antisense eT*eG*dG*dA*dT*dA*dT*dT*d[5mC]*dA*dA*d[5mC]*eT*eG) [compound 435662],19
6,435663 (antisense e[5mC]*e[5mC]*dA*d[5mC]*dA*dT*dG*dG*dA*dT*dA*dT*eT*e[5mC]) [compound 435663],50
7,435664 (antisense eT*eT*dT*dT*dT*d[5mC]*d[5mC]*dA*d[5mC]*dA*dT*dG*eG*eA) [compound 435664],4
8,435665 (antisense eA*eG*dG*dT*dA*dT*dT*dT*dT*dT*d[5mC]*d[5mC]*eA*e[5mC]) [compound 435665],0
9,435666 (antisense eG*eG*dT*dT*dT*dG*d[5mC]*dT*dG*dG*d[5mC]*dA*eT*eT) [compound 435666],71
10,435667 (antisense eA*eA*dT*dT*d[5mC]*dG*dG*d[5mC]*d[5mC]*dT*dT*dG*eG*eG) [compound 435667],16
11,435668 (antisense eT*eG*d[5mC]*d[5mC]*dA*dT*dG*dG*dA*d[5mC]*dA*d[5mC]*eT*e[5mC]) [compound 435668],75
12,435669 (antisense eG*eG*dA*d[5mC]*d[5mC]*dT*dG*d[5mC]*d[5mC]*dA*dT*dG*eG*eA) [compound 435669],36
13,435670 (antisense e[5mC]*eA*dA*d[5mC]*dA*dG*dG*dA*d[5mC]*d[5mC]*dT*dG*e[5mC]*e[5mC]) [compound 435670],47
14,435671 (antisense eT*e[5mC]*dA*d[5mC]*d[5mC]*dA*dA*d[5mC]*dA*dA*d[5mC]*dA*eG*eG) [compound 435671],28
15,435672 (antisense eA*e[5mC]*d[5mC]*d[5mC]*dA*dG*dA*dT*dG*dG*dT*dG*eT*eT) [compound 435672],12
16,435673 (antisense eA*eG*dA*d[5mC]*d[5mC]*dA*d[5mC]*d[5mC]*d[5mC]*dA*dG*dA*eT*eG) [compound 435673],34
17,435674 (antisense eA*eA*dA*d[5mC]*dA*dG*dT*dG*dG*dG*d[5mC]*d[5mC]*eG*e[5mC]) [compound 435674],34
18,435675 (antisense eT*eG*dT*d[5mC]*dG*dA*dA*dA*d[5mC]*dA*dG*dT*eG*eG) [compound 435675],24
19,435676 (antisense eG*eA*dT*dT*dT*dT*dG*dT*d[5mC]*dG*dA*dA*eA*e[5mC]) [compound 435676],11
20,435677 (antisense eG*eT*dG*d[5mC]*dT*d[5mC]*dG*d[5mC]*d[5mC]*d[5mC]*dA*dG*e[5mC]*eA) [compound 435677],60
21,435678 (antisense eA*eG*dG*dT*d[5mC]*dG*dT*dG*d[5mC]*dT*d[5mC]*dG*e[5mC]*e[5mC]) [compound 435678],67
22,435679 (antisense e[5mC]*eG*d[5mC]*dT*dG*dA*dG*dG*dT*d[5mC]*dG*dT*eG*e[5mC]) [compound 435679],62
23,435680 (antisense eG*eT*dG*d[5mC]*dT*d[5mC]*dG*d[5mC]*dT*dG*dA*dG*eG*eT) [compound 435680],52
24,435681 (antisense eA*eT*dG*dA*d[5mC]*d[5mC]*dT*dG*d[5mC]*dG*d[5mC]*d[5mC]*eA*e[5mC]) [compound 435681],40
25,435682 (antisense eG*eG*dA*dT*dG*dA*dT*dG*dA*d[5mC]*d[5mC]*dT*eG*e[5mC]) [compound 435682],36
26,435683 (antisense eA*eT*dG*dT*d[5mC]*dG*dT*dG*dG*dT*dT*dG*eG*eT) [compound 435683],3

row,Substance,% inhibition of human Factor 7 mRNA [%]
1,435684 (antisense eA*eG*d[5mC]*dA*dG*d[5mC]*dG*d[5mC]*dG*dA*dT*dG*eT*e[5mC]) [compound 435684],56
2,435685 (antisense eA*eG*dG*dA*d[5mC]*d[5mC]*dA*d[5mC]*dG*dG*dG*d[5mC]*eT*eG) [compound 435685],40
3,435686 (antisense e[5mC]*eA*dG*dT*dG*dA*dG*dG*dA*d[5mC]*d[5mC]*dA*e[5mC]*eG) [compound 435686],31
4,435687 (antisense eA*eT*dG*dG*dT*d[5mC]*dA*dG*dT*dG*dA*dG*eG*eA) [compound 435687],7
5,435688 (antisense eA*e[5mC]*d[5mC]*dA*d[5mC]*dA*dT*dG*dG*dT*d[5mC]*dA*eG*eT) [compound 435688],0
6,435689 (antisense eT*eT*d[5mC]*dG*dG*dG*d[5mC]*dA*dG*dG*d[5mC]*dA*eG*eA) [compound 435689],23
7,435690 (antisense eG*eT*d[5mC]*d[5mC]*dG*dT*dT*d[5mC]*dG*dG*dG*d[5mC]*eA*eG) [compound 435690],55
8,435691 (antisense e[5mC]*eA*dG*d[5mC]*d[5mC]*dG*d[5mC]*dT*dG*dA*d[5mC]*d[5mC]*eA*eA) [compound 435691],25
9,435692 (antisense e[5mC]*eG*dG*dT*d[5mC]*d[5mC]*dA*dG*d[5mC]*dA*dG*d[5mC]*eT*eG) [compound 435692],32
10,435693 (antisense eG*eG*d[5mC]*dA*dG*dT*d[5mC]*d[5mC]*dT*dG*dG*dG*eT*e[5mC]) [compound 435693],43
11,435694 (antisense e[5mC]*eT*dG*d[5mC]*dA*dG*dG*d[5mC]*dA*dG*dT*d[5mC]*e[5mC]*eT) [compound 435694],39
12,435695 (antisense eG*eA*d[5mC]*dT*dG*d[5mC]*dT*dG*d[5mC]*dA*dG*dG*e[5mC]*eA) [compound 435695],48
13,435696 (antisense e[5mC]*eA*dG*dA*dA*d[5mC]*dA*dT*dG*dT*dA*d[5mC]*eT*e[5mC]) [compound 435696],10
14,435697 (antisense eA*eG*dT*dA*dG*d[5mC]*d[5mC]*dG*dG*d[5mC]*dA*d[5mC]*eA*eG) [compound 435697],53
15,435698 (antisense e[5mC]*e[5mC]*dT*dT*dG*d[5mC]*dA*dG*dG*dA*dG*dT*e[5mC]*e[5mC]) [compound 435698],61
16,435699 (antisense eG*e[5mC]*d[5mC]*d[5mC]*d[5mC]*dA*dG*d[5mC]*dT*dG*dA*d[5mC]*eG*eA) [compound 435699],48
17,435714 (antisense eA*e[5mC]*dT*d[5mC]*dG*dA*dT*dG*dT*dA*d[5mC]*dT*eG*eG) [compound 435714],3
18,435715 (antisense e[5mC]*eA*dG*d[5mC]*d[5mC]*dA*d[5mC]*dT*d[5mC]*dG*dA*dT*eG*eT) [compound 435715],35
19,435716 (antisense eT*eT*dT*dT*dG*d[5mC]*dA*dG*d[5mC]*d[5mC]*dA*d[5mC]*eT*e[5mC]) [compound 435716],22
20,435717 (antisense eT*eG*dA*dG*d[5mC]*dT*dT*dT*dT*dG*d[5mC]*dA*eG*e[5mC]) [compound 435717],0
21,435718 (antisense eG*e[5mC]*dT*d[5mC]*dG*d[5mC]*dA*dG*dG*dA*dG*dG*eA*e[5mC]) [compound 435718],26
22,435719 (antisense e[5mC]*eA*dG*d[5mC]*d[5mC]*dT*dT*dG*dG*d[5mC]*dT*dT*eT*e[5mC]) [compound 435719],50
23,435720 (antisense eA*eG*dG*d[5mC]*dT*d[5mC]*dA*dG*d[5mC]*dT*dG*dG*eG*e[5mC]) [compound 435720],16
24,435721 (antisense eT*eA*dA*dG*dG*dA*dG*dG*d[5mC]*dT*d[5mC]*dA*eG*e[5mC]) [compound 435721],12
25,435722 (antisense eT*eG*dG*dG*d[5mC]*dT*dT*dG*dG*d[5mC]*dT*dG*eA*eA) [compound 435722],50
